Here are results for 8 compounds from patent US20240335431A1, “1-H-PYRROLO[2,3-c]PYRIDINE COMPOUNDS” (Acerta Pharma B.V., priority 2023, published 2024).

The IC50 is the midpoint of a concentration-inhibition curve. A word on the Ki: it is the equilibrium dissociation constant of an inhibitor or competing ligand from its target.

The nature of data set [1]: Human liver microsomes (HLMs) intrinsic clearance assay. The format is in vitro ADME. As to conditions: human, microsomes; for HLM CLint: 1 µM, pH 7.4. As for the experimental part:
Human liver microsomes (HLMs) were obtained from Corning (UltraPool 150 donors) at a concentration of 20 mg/mL protein. HLMs were stored at −80° C. until use and prior to use, thawed in a 37° C. water bath and then stored on wet ice. DMSO and NADPH were sourced from Solarbio S&T Co Ltd.
2 mL of 10 mM DMSO stock solutions of test compound were added to 198 mL acetonitrile to produce […] concentration. 1325 mL of 20 mg/mL HLM were added to 22260 mL of phosphate buffer to produce the HLM mixture. An 8.334 mg/mL solution of NADPH was prepared in 100 mmol/L pH 7.4 phosphate buffer.
222.5 mL of the HLM mixture and 25 mL of the 10 mM NADPH were added into the incubation plates (1 mL 96 well deep well plate from Thermo). The mixture was vortexed for 10 seconds at 1000 rpm. The incubation plate was pre-warmed in a water bath at 37° C. for 8 minutes. 2.5 mL of the […] stocks of test compound was added to initiate the reaction. The mix was vortexed for 12 seconds at 1000 rpm and incubated at 37° C. The incubation mixture (250 mL) contained 1 mg/mL HLM, 1 mmol/L NADPH and […].
The reaction was quenched by transferring 20 mL of the incubation mixture at 0.5, 5, 10, 15, 20 and 30 minutes into the quenching plate containing 100 mL of cold stop solution (acetonitrile containing internal standards). The plate was vortexed at 800 rpm for 2 minutes.
The quenching plates were centrifuged for 20 minutes at 4000 rpm and 4° C. 40 mL of the supernatant was transferred into a 96-well analysis plate containing 160 mL of water. The analysis plate was shaken at 1000 rpm for 2 minutes and the samples analysed by LC-MS/MS.
Peak areas were determined from extracted ion chromatograms. Percent parent remaining was calculated from peak area of test compound. The slope value, k, was determined by linear regression of the natural logarithm of percent parent remaining versus incubation time. The in vitro half-life (t1/2) was determined from the slope value by the equation: […]
Conversion of the in vitro half-life (min) into in vitro CLint (mL/min/mg proteins) was completed using the equation: […]

Data set [2] relates to MOLM-13 cells. The data set is described as follows: Proliferation assay, MOLM-13 (CellTiter-Glo, 7 days). It counts as cell-based, human. As for the experimental part:
(§1) The anti-proliferative effect of compounds was tested in human leukaemia cell lines. The cell lines […] and MV4; 11 each harbor an MLL translocation expressing the MLL fusion proteins MLL-AF9 and MLL-AF4, respectively. Each also express the wildtype protein from the second allele. OCI-AML3 cells carrying the NPM1c gene mutation were also tested.
(§2) MOLM-13 and HEL cells were cultured in RPMI 1640 (Gibco) supplemented with 10% FBS (Gibco) and 1% Pen/Strep (Gibco). MV4; 11 cells were cultured in IMDM (Gibco) supplemented with 10% FBS (Gibco) and 1% Pen/Strep (Gibco). OCI-AML3 cells were cultured in MEMa (Gibco) supplemented with 20% FBS (Gibco) and 1% Pen/Strep (Gibco).
(§3) To assess proliferative effects, 125 MOLM-13 cells, 300 MV4; 11 cells, 75 OCI-AML3 cells, and 200 HEL cells were seeded in 40 μL media per well in 384-well ViewPlates (Perkin Elmer, 6007480). Cell seeding numbers were chosen based on growth curves to ensure linear growth throughout the experiments. Test compounds were added at 3.16-fold serial dilutions in DMSO from […] and DMSO content was normalized to 0.1%. Cells were incubated for 7 days at 37° C. and 5% CO2. A day 0 plate was seeded for each cell line and used as a standard control.
(§4) To measure cell viability, CellTiter-Glo 2.0 (Promega, G9242) luminescent growth indicator was used. 10 μL CellTiter-Glo reagent was added per well. Plates were placed on a plate shaker for 2 minutes in the dark and left to incubate off the shaker for another 8 minutes in the dark, for a total of 10 minutes. Plates were read using an EnVision plate reader (Perkin Elmer) using the Luminescence aperture and a measurement time of 0.1 second.
(§5) Data were analyzed in Genedata Screener®. IC50 values were determined by plotting % inhibition versus log compound concentration and using a one site dose response model. Raw data signals were normalized using 0.1% DMSO media only as background control, 0.1% DMSO with cells no compound as 100% viability (maximum signal), and day 0 0.1% DM with cells no compound as 0% viability (minimum signal).
(In ATP-based viability assays light output follows the ATP content of the culture.)

Data set [3] has as its system OCI-AML3 cells. The data set is described as follows: Proliferation assay, OCI-AML3 (CellTiter-Glo, 7 days). The format is cell-based, human. Particulars: Homo sapiens, OCI-AML-3, 168 h. How it is done:
as §1, §2, §3, §4, §5

Data set [4] deals with HEL cells. Briefly: Proliferation assay, HEL control cell line (CellTiter-Glo, 7 days). It counts as cell-based, human. As to conditions: Homo sapiens, HEL, 168 h. As for the experimental part: as §1, §2, §3, §4, §5
Data set [5] relates to MV4;11 cells. Briefly: Proliferation assay, MV4;11 (CellTiter-Glo, 7 days). The format is cell-based, human. As to conditions: Homo sapiens, MV4-11, 168 h, read-out: MV-4-11 IC50. As for the experimental part: as §1, §2, §3, §4, §5
Data set [6] deals with hERG (Homo sapiens (Human), UniProt Q12809). Briefly: hERG assay 1 (standard), SyncroPatch 384PE. Particulars: CHO cells, room temperature, up to 40 uM. It counts as cell-based. How it is done:
Experiments were performed on the SyncroPatch 384PE (Nanion Technologies) high throughput patch clamp platform at room temperature and used medium resistance chips with 4 patch holes per site. hERG-expressing Chinese hamster ovary K1 (CHO) cell line was used in assay-ready format and kept in liquid nitrogen until use. 2 vials of cells (10×10^6 cells per vial) were thawed and added to 20 ml Hepes-buffered saline solution (HBSS). HBSS comprised 140 mM NaCl, 4 mM KCl, 10 mM HEPES and 5 mM Glucose (pH 7.4). The internal patch clamp solution was KF 120 mM, KCl 20 mM, HEPES 10 mM, EGTA 10 mM, and 25 μM Escin (pH 7.2). After the initial sealing process was complete, a seal enhancer solution comprising HBSS supplemented with 10 mM CaCl2 and 1 mM MgCl2 was applied to cells. The external solution was then exchanged (4 times) for external patch clamp solution comprising NaCl 80 mM, KCl 4 mM, HEPES 10 mM, CaCl2 2 mM, MgCl2 1 mM, glucose 5 mM, and NMDG 60 mM (pH7.4). All compounds were dispensed from initial 10 mM DMSO stocks. An industry standard +60/−40 mV voltage protocol was applied every 15 seconds. Compounds were tested in a 6-point cumulative assay (final DMSO concentration 0.33%), with a concentration range of 139 nM to 40 uM. Data were analyzed in Genedata Screener®. IC50 values were determined by plotting % inhibition versus log compound concentration and using a one site dose response model. Only wells that passed acceptance criteria for this platform were used in this analysis (30 MegaOhm seal resistance, Z prime >0.4 and current size >0.2 nA).
(The hERG channel carries a current that helps repolarise heart muscle cells.)

The target in data set [7] is muscarinic M2 receptor (Homo sapiens (Human), UniProt P08172). Briefly: Muscarinic M2 receptor binding assay (assay 1). Particulars: [3H]AF-DX 384 2 nM, Cheng Prusoff. How it is done:
Cell membrane homogenates (60 μg protein) were incubated for 60 minutes at 22° C. with 2 nM [3H]AF-DX 384 in the absence or presence of the test compound in a buffer containing 50 mM Tris-HCl (pH 7.4), 120 mM NaCl, 5 mM KCl, 5 mM MgCl2, and 1 mM EDTA. Nonspecific binding was determined in the presence of 1 μM atropine. Following incubation, the samples were filtered rapidly under vacuum through glass fiber filters (GF/B, Packard) presoaked with 0.3% PEI and rinsed several times with ice-cold 50 mM Tris-HCl using a 96-sample cell harvester (Unifilter, Packard). The filters were dried then counted for radioactivity in a scintillation counter (Topcount, Packard) using a scintillation cocktail (Microscint 0, Packard). The results were expressed as a percent inhibition of the control radioligand specific binding, from which the Ki was calculated. Data were analyzed using software developed at Cerep (Hill software) and validated by comparison with data generated by the commercial software SigmaPlot®4.0 for Windows® (© 1997 by SPSS Inc.). The inhibition constant, Ki, was calculated using the Cheng Prusoff equation:
where L=concentration of ligand in the assay, and Kd=affinity of the ligand for the receptor. The standard reference compound was methoctramine, which was tested in each experiment at several concentrations to obtain a competition curve from which its IC50 was calculated.

Like-named read-outs stand apart in the source and are kept apart here.

Sequence of hERG (Q12809 whole entry): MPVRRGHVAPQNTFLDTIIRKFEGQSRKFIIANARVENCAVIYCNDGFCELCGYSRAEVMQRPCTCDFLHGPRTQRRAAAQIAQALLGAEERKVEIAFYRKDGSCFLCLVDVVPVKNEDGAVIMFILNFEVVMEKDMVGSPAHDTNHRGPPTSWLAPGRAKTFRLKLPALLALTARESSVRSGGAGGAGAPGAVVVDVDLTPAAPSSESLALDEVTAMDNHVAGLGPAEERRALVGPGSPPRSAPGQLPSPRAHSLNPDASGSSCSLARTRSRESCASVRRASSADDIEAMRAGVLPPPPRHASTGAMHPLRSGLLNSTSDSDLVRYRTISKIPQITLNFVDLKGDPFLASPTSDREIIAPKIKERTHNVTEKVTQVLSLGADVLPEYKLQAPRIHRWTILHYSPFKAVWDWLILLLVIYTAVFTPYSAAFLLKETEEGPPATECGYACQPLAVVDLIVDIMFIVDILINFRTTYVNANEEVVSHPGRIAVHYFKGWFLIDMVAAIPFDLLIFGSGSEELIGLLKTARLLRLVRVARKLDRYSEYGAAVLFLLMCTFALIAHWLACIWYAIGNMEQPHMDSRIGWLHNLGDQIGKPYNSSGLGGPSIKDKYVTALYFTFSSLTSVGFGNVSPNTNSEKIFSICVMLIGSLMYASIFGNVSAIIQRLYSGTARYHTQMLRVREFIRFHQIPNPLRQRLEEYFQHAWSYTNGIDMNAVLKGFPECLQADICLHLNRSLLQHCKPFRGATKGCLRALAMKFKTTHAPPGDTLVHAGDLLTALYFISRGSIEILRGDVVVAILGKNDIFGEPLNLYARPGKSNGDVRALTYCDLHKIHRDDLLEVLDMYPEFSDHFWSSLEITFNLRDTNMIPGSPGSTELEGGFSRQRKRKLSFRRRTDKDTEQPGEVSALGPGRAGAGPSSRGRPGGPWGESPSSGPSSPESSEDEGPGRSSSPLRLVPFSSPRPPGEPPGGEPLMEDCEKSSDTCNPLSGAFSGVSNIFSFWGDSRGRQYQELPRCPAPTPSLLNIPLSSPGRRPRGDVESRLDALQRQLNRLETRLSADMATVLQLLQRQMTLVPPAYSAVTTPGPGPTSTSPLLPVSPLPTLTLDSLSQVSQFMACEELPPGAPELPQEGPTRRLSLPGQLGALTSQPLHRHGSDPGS
Sequence of muscarinic M2 receptor (P08172 whole entry): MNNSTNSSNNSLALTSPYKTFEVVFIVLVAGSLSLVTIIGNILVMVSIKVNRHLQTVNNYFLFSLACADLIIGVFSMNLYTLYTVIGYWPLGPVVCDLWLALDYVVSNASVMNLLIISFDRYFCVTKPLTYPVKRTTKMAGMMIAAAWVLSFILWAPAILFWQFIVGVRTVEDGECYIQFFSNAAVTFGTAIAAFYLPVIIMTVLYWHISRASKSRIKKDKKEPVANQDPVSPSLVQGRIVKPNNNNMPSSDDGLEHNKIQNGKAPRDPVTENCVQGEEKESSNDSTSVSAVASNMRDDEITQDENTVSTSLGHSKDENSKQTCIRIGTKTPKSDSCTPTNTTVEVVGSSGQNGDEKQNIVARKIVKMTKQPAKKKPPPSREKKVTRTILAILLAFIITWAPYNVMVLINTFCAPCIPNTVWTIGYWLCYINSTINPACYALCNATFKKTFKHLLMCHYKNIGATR

`C[C@@H]1COC[C@H](C)N1C(=O)c1cc(F)ccc1-n1cc(C(=O)C2CCN(C(=O)[C@H]3N[C@@H]4CC[C@H]3C4)CC2)c2ccncc21` [Example 35, (1-((1R,3S,4S)-2-Azabicyclo[2.2.1]heptane-3-carbonyl)piperidin-4-yl)(1-(2-((3R,5S)-3,5-dimethylmorpholine-4-carbonyl)-4-fluorophenyl)-1H-pyrrolo[2,3-c]pyridin-3-yl)methanone] showed a microsomal CLint at 1 µM in data set [1] (pH 7.4, HLM CLint) of 5 µL/min/mg. Besides, the IC50 in data set [2] (Homo sapiens, MOLM-13, 168 h) was 297 nM; in data set [3], 412 nM; in data set [4], greater than 10000 nM; in data set [5] it was 146 nM.
For the compound `Cc1c(C(=O)[C@@H]2CCN(C(=O)[C@H]3NC[C@@H]4C[C@@H]43)[C@@H](C)C2)c2ccncc2n1-c1ccc(F)cc1C(=O)N(CC(F)(F)F)C(C)C` (single isomer, unassigned) [Example 53-1, 2-(3-((2R*,4S*)-1-((1S,2S,5R)-3-Azabicyclo[3.1.0]hexane-2-carbonyl)-2-methylpiperidine-4-carbonyl)-2-methyl-1H-pyrrolo[2,3-c]pyridin-1-yl)-5-fluoro-N-isopropyl-N-(2,2,2-trifluoroethyl)benzamide], the “HLM CLint” value in data set [1] turned out to be 116 µL/min/mg. The IC50 in data set [2] was 3270 nM; in data set [4], greater than 10000 nM.
Consider `Cc1c(C(=O)C2CCN(C(=O)[C@@H]3CCC4(CC4)N3)CC2)c2ccncc2n1-c1ccc(F)cc1C(=O)N1[C@H](C)COC[C@H]1C` (single isomer, unassigned) [Example 58-1], for which, in data set [1] (pH 7.4, 1 mg/mL HLM, NADPH, read-out: HLM CLint), the microsomal CLint at 1 µM was determined as 128 µL/min/mg. For the same compound, the IC50 in data set [2] and in data set [4] was greater than 10000 nM each time.
As to `CCN(C(=O)c1cc(F)ccc1-n1c(C)c(C(=O)C2CCN(C(=O)[C@@H]3CCC(C)(C)N3)CC2)c2ccncc21)C(C)C` (single isomer, unassigned) [Example 50-1], in data set [1], the “HLM CLint” value stood at 183 µL/min/mg. Also, the IC50 in data set [2] is 2070 nM; in data set [4] it was greater than 10000 nM.
On to `Cc1c(C(=O)C2CCN(C(=O)[C@@H]3CC[C@H](C)N3)CC2)c2ccncc2n1-c1ccc(F)cc1C(=O)N(C(C)C)C(C)C` [Example 60, 5-Fluoro-N,N-diisopropyl-2-(2-methyl-3-(1-((2S,5S)-5-methylpyrrolidine-2-carbonyl)piperidine-4-carbonyl)-1H-pyrrolo[2,3-c]pyridin-1-yl)benzamide], for which the microsomal CLint at 1 µM in data set [1] (pH 7.4, HLM CLint) was found to be 106 µL/min/mg. Moreover, the IC50 is 71 nM in data set [2] (Homo sapiens, MOLM-13, 168 h); greater than 40000 nM in data set [6]; greater than 10000 nM in data set [4]; 88 nM in data set [5].
The matching figures for `Cc1c(C(=O)C2CCN(C(=O)[C@@H]3CC[C@@H](C)N3)CC2)c2ccncc2n1-c1ccc(F)cc1C(=O)N(C(C)C)C(C)C` [Example 61, 5-Fluoro-N,N-diisopropyl-2-(2-methyl-3-(1-((2S,5R)-5-methylpyrrolidine-2-carbonyl)piperidine-4-carbonyl)-1H-pyrrolo[2,3-c]pyridin-1-yl)benzamide]: 83 µL/min/mg, 92 nM, greater than 40000 nM, greater than 10000 nM and 114 nM.
With `CCN(C(=O)c1cc(F)ccc1-n1cc(C(=O)C2CCN(C(=O)[C@H]3NC4CCC3CC4)CC2)c2ccncc21)C(C)C` [Example 29, (S)-2-(3-(1-(2-Azabicyclo[2.2.2]octane-3-carbonyl)piperidine-4-carbonyl)-1H-pyrrolo[2,3-c]pyridin-1-yl)-N-ethyl-5-fluoro-N-isopropylbenzamide], the microsomal CLint at 1 µM in data set [1] (pH 7.4, HLM CLint) is 26 µL/min/mg. In data set [7], this compound gave a Ki of 200 nM. The IC50 was 58 nM in data set [2] (Homo sapiens, MOLM-13, 168 h); greater than 40000 nM in data set [6]; greater than 10000 nM in data set [4]; 57 nM in data set [5].
Compound `CC(C)N(C(=O)c1cc(F)ccc1-n1cc(C(=O)[C@@H]2CCCN(C(=O)[C@H]3N[C@@H]4CC[C@H]3C4)CC2)c2ccncc21)C(C)C` (relative stereo) [Example 45, 2-(3-((R*)-1-((1R,3S,4S)-2-Azabicyclo[2.2.1]heptane-3-carbonyl)azepane-4-carbonyl)-1H-pyrrolo[2,3-c]pyridin-1-yl)-5-fluoro-N,N-diisopropylbenzamide 1·formic acid] had a microsomal CLint at 1 µM in data set [1] (pH 7.4, HLM CLint) of 139 µL/min/mg. The IC50 in data set [2] (Homo sapiens, MOLM-13, 168 h) is 109 nM; in data set [4], greater than 10000 nM.
